According to PMC11404609, “Gut microbiota-mediated C-sulfonate metabolism impairs the bioavailability and anti-cholestatic efficacy of andrographolide” (Gut Microbes, 2024):
Structures can show the parent of a compound that is named as a salt. Where two headings read alike, the source gives them in different places.

How the values were obtained:
[1] = parameters: method as in PMID 21721007; details: AP incubated with rat duodenal perfusate; cited from earlier work
[2] = Tissue distribution of AP and APM in rats; type: in vivo
Method: (§1) Control and ABX rats were orally administered a single dose of AP at 120 mg/kg. Control, ABX and germ-free C57BL/6J mice were orally administered a single dose of AP at 100 mg/kg. After 90 min of AP administration, all animals were euthanized, and blood and tissue samples were collected for subsequent analysis.
(§2) An ACQUITY^TM UPLC-MS/MS system equipped with an ACQUITY^TM UPLC BEH C18 Column (50 × 2.1 mm I.D., 1.7 μm, Waters, Milford, MA, USA) was utilized for the quantification of AP and APM as previously described.[47] Briefly, the detection samples (50 μL) were mixed with 50 μL of IS (50 ng/mL). AP and APM were extracted by 400 μL cold methanol. Supernatants were dried under nitrogen stream. Then, the residue was dissolved with 50% methanol in water, centrifuged for 30 min at 13,000 rpm, and 10 µL of the supernatant was subjected to UPLC-MS/MS analysis. The mobile phases consisted of eluent A (water) and eluent B (methanol) with a gradient elution as follows: 0–0.8 min, 10% B; 0.8–1.2 min, 10–90% B; 1.2–5.0 min, 90% B; 5.0–5.5 min, 90–10% B; 5.5–7.0 min, 10% B. The flow rate was 0.3 mL/min and the injection volume of all samples was 10 μL. The quantification of AP, APM and IS was performed by UPLC-MS/MS using an MRM method with the transitions of m/z 349.1→m/z 287.2 for AP, m/z 413.2→m/z 287.2 for APM, m/z 269→m/z 133 for IS.
(§3) AP was administered intravenously and orally to detect the production of the C-sulfonate metabolite APM. In tissue distribution experiment, rats were given AP intravenously (24 mg/kg) or orally (120 mg/kg), while mice received AP intravenously (20 mg/kg) or orally (100 mg/kg). After a 90-minute interval, the animals were sacrificed, and their liver, kidneys, small intestine, and colon were collected for analysis. In pharmacokinetic studies, rats were administered 24 mg/kg of AP intravenously or 120 mg/kg of AP by oral gavage. Blood samples were collected at predetermined time intervals (0, 5, 10, 20, 30, 40, 60, 90, 120, 180, 240, 360, and 480 min), as described, to detect the content of AP and APM by UPLC-MS/MS.

[3] = Tissue distribution of AP and APM in mice; type: in vivo
Method: as §1
After 360 min of AP treatment, all mice were euthanized, and tissue samples were collected for subsequent analysis. […]
as §2, §3

[4] = AP incubation with duodenal perfusate; type: in vitro ADME, rat; details: AP 40 μM
Method: To investigate whether HSO3^- is the essential ligand for the C-sulfonate metabolism of AP, duodenal perfusate of SD rat was collected according to the method described in the literature^5. The duodenal perfusate was filtered by 0.22 μm Millex® needle filter, ultrafiltered by Amicon® Ultra filter or placed in an autoclave at 121°C for 2 hours, and then incubated with AP (40 μM) in vitro for 30, 60, 90 and 120 min. In another experiment, duodenal perfusate was autoclaved and then combined with HSO3^- (80 μM) and incubated with AP (40 μM) in vitro for 120 min. At the end of the incubation, 100 μL of ice-cold acetonitrile was quickly added to terminate the reaction. After centrifugation at 13000 rpm for 30 min, the supernatant was collected for UPLC-MS/MS analysis.

HSO3^− = HSO3^− concentration in the cecum; type: in vivo; details: mice
Method: Mice were orally administered APS reductase inhibitor bromocriptine mesylate (20 mg/kg, p.o.) or Na2SO4 (200 mg/kg, p.o.) or saline solution 1 week before AP treatment (a single dose of AP at 100 mg/kg, p.o.). After 360 min of AP treatment, all mice were euthanized, and tissue samples were collected for subsequent analysis. In specific cases, mice were orally administered D. piger suspension (0.2 mL, 1 × 10^9 CFU/mL) or saline solution 2 weeks before AP treatment (a single dose of AP at 100 mg/kg, p.o.).
(§4) For the determination of APS reductase concentration, the supernatant from mouse cecum contents and the D. piger strain were assessed using microorganism APS reductase elisa assay kit (Shanghai Senxingyan Biotechnology Co., Ltd., China), following the instructions provided with the kit. For the determination of HSO3^− concentration, cecum contents from mice or rats were weighed and homogenized in five volumes of normal saline (based on tissue weight). The homogenate was then subjected to centrifugation at 13,000 rpm and 4°C for 15 min. The supernatant (or perfusate) was collected and mixed with 0.2% formaldehyde, 0.05% basic fuchsin, and 0.01% EDTA-Na2 in a ratio of 1:1:1:9 under acidic conditions. To establish a standard curve, different concentrations of NaHSO3 were used. Subsequently, the absorbance of the resulting solutions was measured at a wavelength of 560 nm after 40 min.

[5] = parameters: method as in PMID 36809835, PMID 34142342; details: dose-dependent increase; cited from earlier work
[6] = Safety of APS reductase inhibitor (liver, renal, blood lipid indicators); type: in vivo; details: mice, 20 mg/kg orally for 14 days
Method: Supplementary Figure 5. […] (A-D) Liver function indicators including ALT, AST, TBA, and TBIL. (E-G) Renal function indicators including CREA, UREA, and UA. (H-K) Blood lipid indicators including TG, TC, HDL-C, and LDL-C. Inhibitor refers to the treatment with the APS reductase inhibitor bromocriptine mesylate at a dosage of 20 mg/kg, administered orally for 14 days in mice. Data are presented as mean ± SEM (n = 8 per group).

APS reductase = APS reductase level in feces by qPCR; type: in vivo; details: mice feces, bromocriptine mesylate 20 mg/kg p.o.
Method: Total RNA from frozen livers of Vehicle, AP (200 mg/kg, i.p.), ANIT (50 mg/kg), and ANIT+AP (200 mg/kg, i.p.) groups was extracted using the Animal Total RNA Isolation Kit (FOREGENE, China). cDNA was synthesized using a Color Reverse Transcription Kit (EZBioscience, Roseville, CA, USA). qPCR was performed using SYBR green/Rox qPCR master mix (EZBioscience, Roseville, CA, USA), according to the manufacturer’s instruction. The expression of target genes was normalized to β-actin, and fold changes were calculated using 2^–ΔΔCT method. For bacterial identification, genomic DNA of fecal flora was isolated using the TIANamp Stool DNA Kit (TIANGEN, Beijing, China) and qPCR was performed. The relative abundance and expression of Desulfovibrio spp., D. piger and APS reductase were normalized to the amounts of total bacteria (16S). All primers were synthesized by Tsingke Biotechnology Co., Ltd. (Beijing, China) and were listed in Supplementary Table S1.

D. piger = type: in vitro ADME, Desulfovibrio piger; details: D. piger with inhibitor
Method: The cecum contents from mice were collected and mixed with sterilized anaerobic medium in a ratio of 1.0 g to 10 mL, with gentle agitation. After filtered, the mixed medium containing the intestinal flora was placed in an anaerobic environment and preincubated at 37°C for 30 min before use. Mixed medium with or without APS reductase inhibitor bromocriptine mesylate (20 μg/mL) was incubated with AP (10 μg/mL), while autoclaved mixed medium without APS reductase inhibitor served as the control. Incubation was performed in a shaking incubator at 37°C for 6 h, with strict maintenance of anaerobic condition throughout the process.[44] Similarly, D. piger (0.2 mL, 1 × 10^8 CFU/mL) with or without inhibitor, was incubated with AP for 0, 3, 6, and 12 h, with autoclaved D. piger without inhibitor serving as the control. […] And then samples were analyzed by UPLC-MS/MS to detect the concentrations of AP and APM. Concentrations of APS reductase and HSO3^− were also determined at the end of incubation.
For the determination of APS reductase concentration, the supernatant from mouse cecum contents and the D. piger strain were assessed using microorganism APS reductase elisa assay kit (Shanghai Senxingyan Biotechnology Co., Ltd., China), following the instructions provided with the kit. […] Subsequently, the absorbance of the resulting solutions was measured at a wavelength of 560 nm after 40 min.

intestinal flora of mice = assay: Co-culturing AP with cecum samples from mice; type: in vitro ADME; details: bromocriptine mesylate 20 μg/mL
Method: The cecum contents from mice were collected and mixed with sterilized anaerobic medium in a ratio of 1.0 g to 10 mL, with gentle agitation. After filtered, the mixed medium containing the intestinal flora was placed in an anaerobic environment and preincubated at 37°C for 30 min before use. Mixed medium with or without APS reductase inhibitor bromocriptine mesylate (20 μg/mL) was incubated with AP (10 μg/mL), while autoclaved mixed medium without APS reductase inhibitor served as the control. Incubation was performed in a shaking incubator at 37°C for 6 h, with strict maintenance of anaerobic condition throughout the process.[44] Similarly, D. piger (0.2 mL, 1 × 10^8 CFU/mL) with or without inhibitor, was incubated with AP for 0, 3, 6, and 12 h, with autoclaved D. piger without inhibitor serving as the control. The reaction was terminated by adding cold methanol contained IS. And then samples were analyzed by UPLC-MS/MS to detect the concentrations of AP and APM. Concentrations of APS reductase and HSO3^− were also determined at the end of incubation.
as §4

## C=C1CCC2C(C)(CO)C(O)CCC2(C)C1CC(C1=CCOC1=O)S(=O)(=O)O [APM, 14-deoxy-12(R)-sulfo andrographolide]
[1]
  APM generation: large amounts
[2]; ABX-treated rats vs Control, AP 120 mg/kg oral
  levels of APM in plasma and tissues: reduced levels
[2]; rats, oral administration of AP (120 mg/kg)
  APM in all tissues: significant amount of APM was detected
[2]; rats, tail vein administration of AP (24 mg/kg)
  APM in the intestine, liver, and kidneys: undetectable
[3]; ABX-treated mice vs Control, AP 100 mg/kg oral
  concentration of APM in tissues: decreased
[3]; mice colonized with D. piger vs Control, AP 100 mg/kg p.o.
  concentration of APM in tissues: increase
[3]; mice of pharmacological experiment, AP 200 mg/kg, following ABX treatment vs Control
  level of APM in the intestine and liver: decreased significantly
[3]; mice, AP 200 mg/kg p.o. with APS reductase inhibitor vs without
  APM within the small intestine and liver: decrease
[3]; mice, oral administration of AP (100 mg/kg)
  APM in all tissues: significant amount of APM was detected
[3]; mice, tail vein administration of AP (20 mg/kg)
  APM in the intestine, liver, and kidneys: undetectable
[4]; autoclaved duodenal perfusate
  APM generation: not detectable
[4]; autoclaved perfusate with addition of HSO3^− (80 μM), 120 min
  APM generation: production of APM
[4]; duodenal perfusate after filtration and ultrafiltration
  APM generation: continued APM generation

## O=S(=O)([O-])[O-].[Na+].[Na+] [Na2SO4, sodium sulfate]
HSO3^−; Na2SO4 200 mg/kg p.o.
  HSO3^− content in the cecum: significant increase

## CC[C@H]1[C@@H](O)[C@@H]2[C@H](CC[C@]3(C)[C@@H]([C@H](C)CCC(=O)O)CC[C@@H]23)[C@@]2(C)CC[C@@H](O)C[C@@H]12 [OCA, obeticholic acid]
[5]
  pruritus, share of treated patients: roughly 40%

## CC(C)C[C@H]1C(=O)N2CCC[C@H]2[C@]2(O)O[C@](NC(=O)[C@@H]3C=C4c5cccc6[nH]c(Br)c(c56)C[C@H]4N(C)C3)(C(C)C)C(=O)N12 [bromocriptine mesylate]
[6]
  damage to organism (liver function, renal function, blood lipid indicators): did not induce damage to organism
APS reductase
  APS reductase level: decrease
HSO3^−; bromocriptine mesylate 20 mg/kg p.o.
  HSO3^− content in the cecum: decrease
D. piger
  effect on D. piger metabolism of AP into APM (APS reductase and HSO3^− production): significantly inhibited
Intestinal flora of mice; AP 10 μg/mL, 6 h
  effect on conversion of AP into APM by the intestinal flora: effectively impeded
Intestinal flora of mice; co-culture of AP with cecum samples
  concentrations of APS reductase and HSO3^−: significant decrease
